Experimental data published in patent US20160209428A1, “DIAGNOSTIC AND PREDICTIVE METABOLITE PATTERNS FOR DISORDERS AFFECTING THE BRAIN AND NERVOUS SYSTEM” (THE REGENTS OF THE UNIVERSITY OF CALIFORNIA, priority 2013, published 2016).
“Also recorded” adds a separate entry of the source.

Columns and labels:
[1] = system: Fragile X (Fmr1) knockout mouse; assay: Social preference and social novelty, Fragile X model; assay type: in vivo; details: male Fmr1 KO mice, weekly suramin 20 mg/kg ip
Source text: A Fragile X (Fmr1) knockout mouse was used on the FVB strain background. It has the genotype: FVB.129P2-Pde6b^+ Tyr^c-ch Fmr1^tm1Cgr/J (Jackson Stock #004624). The Fmr1^tm1Cgr allele contains a neomycin resistance cassette replacing exon 5 that results in a null allele that makes no FMR mRNA or protein. The control strain used has the genotype: FVB.129P2-Pde6b^+ Tyr^c-ch/AntJ (Jackson Stock #004828). […] The wild-type Pde6b locus from the 129P2 ES cells corrects the retinal degeneration phenotype that produces blindness by 5 weeks of age in typical FVB mice. The Fmr1 locus is X-linked, so males are hemizygous and females are homozygous for the knockout. A metabolomic analysis on Fmr1 knockout mice on the C57BL/6J background was also performed to refine the understanding of which metabolic disturbances were directly related to the Fmr1 knockout, and which were the result of changes in genetic background. For these studies the same Fmr1^tm1Cgr knockout allele bred on the C57BL6/J background was used. These animals had the genotype: B6.129P2-Fmr1^tm1Cgr/J (Jackson Stock#003025). […]
Altered social behavior is a measure of autism-like features in mouse models of autism. […] There was also a 35% reduction in social novelty, as measured by the time spent interacting with a novel mouse compared to a familiar mouse. […]

[2] = system: maternal immune activation (MIA) mouse model; assay: Plasma metabolomics after single-dose suramin or saline, MIA model; assay type: in vivo; details: for Pathway normalized by single-dose suramin treatment: MIA mice
Procedure: Only male animals that had been behaviorally evaluated were tested. Samples were analyzed on an AB SCIEX QTRAP 5500 triple quadrupole mass spectrometer equipped with a Turbo V electrospray ionization source, Shimadzu LC-20A UHPLC system and a PAL CTC autosampler (AB SCIEX). […] Plasma was separated by centrifugation at 600 g×5 min at 20° C. within 1 h of collection. Fresh lithium-heparin plasma was transferred to labeled tubes for storage at −80° C. for analysis. Typically, 45 μl of plasma was thawed on ice and transferred to a 1.7-ml Eppendorf tube. Two and one-half (2.5) microliters of a cocktail containing 35 commercial stable isotope internal standards and 2.5 μl of 310 stable isotope internal standards that were custom-synthesized in Escherichia coli and Saccharomyces cerevisiae by metabolic labeling with ^13C-glucose and ^13C-bicarbonate were added, mixed and incubated for 10 min at 20° C. to permit small molecules and vitamins in the internal standards to associate with plasma-binding proteins. Macromolecules (protein, DNA, RNA and so on) were precipitated by extraction with 4 volumes (200 μl) of cold (−20° C.), acetonitrile:methanol (50:50) (LCMS grade, Cat no. LC015-2.5 and GC230-4, Burdick & Jackson, Honeywell, Muskegon, Mich., USA), vortexed vigorously and incubated on crushed ice for 10 min, and then removed with centrifugation at 16000 g×10 min at 4° C. The supernatants containing the extracted metabolites and internal standards in the resulting 40:40:20 solvent mix of acetonitrile:methanol:water were transferred to labeled cryotubes and stored at −80° C. for LC-MS/MS (liquid chromatography-tandem mass spectrometry) analysis.
LC-MS/MS analysis was performed by MRM under the Analyst v1.6.1 software control in both negative and positive modes with rapid polarity switching (50 ms). Nitrogen was used for curtain gas (set to 30), collision gas (set to high) and ion source gases 1 and 2 (set to 35). The source temperature was 500° C. Spray voltage was set to −4500V in negative mode and to 5500V in positive mode. The values for Q1 and Q3 mass-to-charge ratios (mz−1), declustering potential, entrance potential, collision energy and collision cell exit potential were determined and optimized for each MRM for each metabolite. Ten microliters of extract were injected with PAL CTC autosampler into a 250 mm×2.1 mm, 5-μm Luna NH2 aminopropyl HPLC column (Phenomenex) held at 25° C. for chromatographic separation. […] The flow rate was 300 μl min^−1. All the samples were kept at 4° C. during analysis. The chromatographic peaks were identified using MultiQuant v2.1.1 (AB SCIEX), confirmed by manual inspection and the peak areas were integrated. The median of the peak area of stable isotope internal standards was calculated and used for the normalization of metabolite concentration across the samples and batches. N=6, 6.5-month-old males per group. Metabolite data were log-transformed before multivariate and univariate analyses.
Group means and s.e.m. are reported. Behavioral data involving more than two groups were analyzed by two-way analysis of variance (ANOVA) and one-way ANOVAs (GraphPad Prism 5.0d, GraphPad Software Inc., La Jolla, Calif., USA). Pair-wise post hoc testing was performed by the method of Tukey. Repeated measures ANOVA with prenatal treatment and drug as between subject factors and stimulus (mouse/cup) on time spent with mouse or cup was used as an additional test of social preference. Student's t-test was used for comparisons involving the two groups. Significance was set at P<0.05. Bonferroni post hoc correction was used to control for multiple hypothesis testing when t-tests were used to test social preference in two or more experimental groups. Metabolomic data were analyzed using multivariate partial least squares discriminant analysis, Ward hierarchical clustering and univariate one-way ANOVA with pairwise comparisons and post hoc correction by Fisher's least significant difference test in MetaboAnalyst.

Cc1ccc(C(=O)Nc2ccc(S(=O)(=O)O)c3cc(S(=O)(=O)O)cc(S(=O)(=O)O)c23)cc1NC(=O)c1cccc(NC(=O)Nc2cccc(C(=O)Nc3cc(C(=O)Nc4ccc(S(=O)(=O)O)c5cc(S(=O)(=O)O)cc(S(=O)(=O)O)c45)ccc3C)c2)c1 [Suramin, suramin]
altered social behavior (social preference, social novelty) [1]: corrected | Pathways normalized by single-dose suramin treatment, all disturbed pathways ([2]; 17/18 pathways disturbed in the MIA model, plasma): 94% (17/18) | Pathway normalized by single-dose suramin treatment ([2]; Amino-sugar and galactose metabolism, plasma): Yes (1/1) | Pathway normalized by single-dose suramin treatment ([2]; Bile salt metabolism, plasma): No (0/3) | Pathway normalized by single-dose suramin treatment ([2]; Biopterin, neopterin, molybdopterin metabolism, plasma): Yes (1/1) | Pathway normalized by single-dose suramin treatment ([2]; Cholesterol, cortisol, steroid metabolism, plasma): Yes (4/4) | Pathway normalized by single-dose suramin treatment ([2]; GABA, glutamate, arginine, omithine, proline metabolism, plasma): Yes (1/1) | Pathway normalized by single-dose suramin treatment ([2]; Glycolysis and gluconeogenesis, plasma): Yes (3/3) | Pathway normalized by single-dose suramin treatment ([2]; Krebs cycle, plasma): Yes (2/2) | bile salt pathway disturbance ([2]; MIA model): not restored | Pathway normalized by single-dose suramin treatment ([2]; Microbiome metabolism, plasma): Yes (6/6) | Pathway normalized by single-dose suramin treatment ([2]; Oxalate, glyxoylate metabolism, plasma): Yes (2/2) | Pathway normalized by single-dose suramin treatment ([2]; Phospholipid metabolism, plasma): Yes (4/4) | Pathway normalized by single-dose suramin treatment ([2]; Purine metabolism, (metabolites normalized/discriminating), plasma 2 days after single dose): Yes (9/11) | Pathway normalized by single-dose suramin treatment ([2]; Pyrimidine metabolism, plasma): Yes (1/1) | Pathway normalized by single-dose suramin treatment ([2]; SAM, SAH, methionine, cysteine, glutathione metabolism, plasma): Yes (1/1) | Pathway normalized by single-dose suramin treatment ([2]; Sphingolipid metabolism, plasma): Yes (4/4) | Pathway normalized by single-dose suramin treatment ([2]; Thyroxine metabolism, plasma): Yes (1/1) | Pathway normalized by single-dose suramin treatment ([2]; Tryptophan metabolism, plasma): Yes (1/1) | Pathway normalized by single-dose suramin treatment ([2]; Vitamin B2 (riboflavin) metabolism, plasma): Yes (1/1) | Pathway normalized by single-dose suramin treatment ([2]; Vitamin B3 (niacin/NAD) metabolism, plasma): Yes (1/1) | differences in metabolic profile between control and MIA animals ([2]; plasma 2 days after single dose suramin 20 mg kg^−1 i.p.): substantially normalized; also recorded: drives the metabolism of MIA animals (PIC-Sal) strongly in the direction of controls
